Data on one compound can be found in paper PMC10120310 (Cell Insight, 2022).

pEC50: −log10 of the molar value. Where only a bound is given, the exact number is not on record here.

The nature of one series: in vitro. The settings on record: dog.
In another series the target is influenza NA protein (Influenza A virus, UniProt P03470). In kind it is cell-based, influenza virus (WSN).
For another series, the system named is H1N1 virus. Kind of series: microbe, parasite or virus in culture. The format is cell-based. The note with it: Influenza A virus, H1N1, MDCK.

Sequence of influenza NA protein (P03470 whole entry, looked up): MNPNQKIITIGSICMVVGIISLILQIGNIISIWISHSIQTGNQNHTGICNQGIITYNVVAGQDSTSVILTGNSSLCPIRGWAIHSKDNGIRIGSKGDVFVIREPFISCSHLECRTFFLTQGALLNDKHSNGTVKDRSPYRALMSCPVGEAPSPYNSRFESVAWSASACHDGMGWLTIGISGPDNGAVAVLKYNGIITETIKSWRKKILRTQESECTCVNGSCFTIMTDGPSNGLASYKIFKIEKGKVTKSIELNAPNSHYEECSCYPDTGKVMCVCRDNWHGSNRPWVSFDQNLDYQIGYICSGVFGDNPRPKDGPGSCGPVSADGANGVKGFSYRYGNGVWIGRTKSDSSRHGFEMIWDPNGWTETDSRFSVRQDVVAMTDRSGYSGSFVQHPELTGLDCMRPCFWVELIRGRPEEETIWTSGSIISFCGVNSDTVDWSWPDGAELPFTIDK

In turn, `CCOC(=O)C1=C[C@@H](OC(CC)CC)[C@H](NC(C)=O)[C@@H](N)C1` [OSP, oseltamivir phosphate] showed a CC50 in the series “in vitro” of over 50 µM. In addition, the NA protein degradation entry on influenza NA protein was “no degradation activity”. The pEC50 in the series with H1N1 virus is 6.44.

For orientation: pEC50 means the EC50 on a negative log10 scale, so that one unit is a factor of ten. Read a high pEC50 as a small EC50.
